Experimental data: patent US20140037630A1, “METHODS FOR TREATING MICA-RELATED DISORDERS” (DANA-FARBER CANCER INSTITUTE, INC., priority 2006, published 2014)

Experiments:
MICA = test: Anti-MICA antibody ELISA with recombinant MICA protein on longitudinal patient sera; assay type: in vivo, human; conditions: patient MEL15; sera diluted 1:500
Description: (§1) Anti-MICA antibodies and sMICA levels were measured with ELISAs using recombinant MICA protein (ProSpec-Tany TechnoGene Inc.) and anti-human MICA monoclonal antibodies (R&D Systems). The lower limits of the assay were 90 pg/ml. The Wilcoxon rank sum test with no adjustments for multiple comparisons was used to analyze the differences among the normal donors, MGUS, and MM patients. For complement assays, 293T and 293-T-MICA cells, generated by retroviral mediated gene transfer were incubated with patient sera and human complement (Sigma-Aldrich) and lysis quantified using MTT (Roche Diagnostic GmbH).
The humoral response to MICA was analyzed by an ELISA with recombinant MICA protein as described in Example 1. Longitudinal sera samples from MEL15 were diluted 1:500. Downward arrows denote tumor cell vaccinations and upward arrows depict infusions of MDX-010.
Patient M37 entered study with visceral melanoma metastases, which were completely resected for vaccine manufacture. […] Subsequent isolated recurrences were processed into additional vaccines, whereas the patient succumbed to progressive disease 4.5 years after study entry.

sMICA = sMICA ELISA on longitudinal MEL15 sera; assay type: in vivo, human; conditions: patient MEL15 sera
Description: as §1
Soluble MICA (sMICA) levels were also analyzed. […] The reduction in sMICA was confirmed with immunoblotting analysis of MEL15 sera using an anti-MICA monoclonal antibody.

U226 MM cells [1] = test: Immunoblotting for DNA damage response (phospho-ATM, phospho-chk-2) in U226 MM cells; assay type: cell-based
Description: (§2) Antibodies used for immunoblotting were: anti-phospho-ATM (ser 1981), anti-ATM, anti-phospho-ATR (ser 428), anti-ATR, anti-phospho-chk-1 (ser 280) and anti-phospho-chk-2 (thr 68) (Cell Signaling, Beverly, Mass.). Immunoblotting was performed according to standard methods. In some experiments, U226 cells were transiently transfected with expression plasmids encoding human chk-1 shRNA (5′-[…]-3′) (SEQ ID NO: 1), chk-2 shRNA, or ATM shRNA (Upstate cell signaling, Lake Placid, N.Y.) according to the manufacturer's instructions. The efficiency of gene knockdown was 50%-90% as assessed by immunoblotting.
(§3) U226, RPMI, and MM-1R cells were obtained from the American Type Culture Collection (Manassas, Va.), and MM-1S cells were a gift of Dr. Steven Rosen (Northwestern University). […] U226-MICA cells were generated with retroviral mediated gene transfer according to standard methods.
(§4) The effect of the proteasome inhibitor Bortezomib, a MM therapeutic, on MICA expression and the DNA damage response pathway was analyzed. U226 and RPMI-8226 MM cells were treated with 20 μM Bortezomib, 250 μg/ml dexamethasone or 10 μg/ml aphidicolin (a DNA polymerase inhibitor that served as a control for inducing DNA damage) for the indicated times. Cell lysates were prepared and evaluated for phospho-ATM (ser 1981), ATM, phospho-chk-2 (thr 68) or chk-2 by immunoblotting. […]

RPMI-8226 MM cells = test: Immunoblotting for DNA damage response (phospho-ATM, phospho-chk-2) in RPMI-8226 MM cells; assay type: cell-based; conditions: 20 μM Bortezomib or 250 μg/ml dexamethasone
Description: as §2, §3, §4

MM-1S cells = test: Immunoblotting for phospho-ATM and total ATM in MM-1S cells; assay type: cell-based; conditions: 10 μM Bortezomib
Description: as §2, §3, §4

U226 MM cells [2] = test: Surface MICA expression by flow cytometry in U226 MM cells; assay type: cell-based; conditions: 20 μM Bortezomib overnight
Description: (§5) PBMCs and bone marrow aspirates were processed by Ficoll-Hypaque (Pharmacia) density-gradient centrifugation. PBMCs from healthy donors or patients were incubated for 48 hours in patient or control sera (10%) in complete media and stained with PE-conjugated anti-NKG2D mAb (Pharmingen), FITC-conjugated anti-CD3 mAb (BD-Biosciences Pharmingen), and either PC5-conjugated anti-CD8 mAb or PC5-conjugated anti-CD56 mAb (Beckman-Coulter). In Examples 9-11, antibodies used, in addition to the above, were: FITC-conjugated anti-CD138, PE-conjugated anti-MICA mAb (R&D Systems), and anti-ERp5 (Axxora Platform) followed by FITC-conjugated anti-rabbit (Southern Biotech). Cells were analyzed with a FW501 flow cytometer (Beckman-Coulter) and FlowJo software (Tree Star). Cells were gated for CD3^+CD8^+ T cells and CD3^−CD56^+ NK cells. […] Cells were analyzed with a FACScan cytometer (Becton Dickinson). […]
(§6) For the experiment shown in FIG. 16B, the indicated MM cells were treated with 20 μM Bortezomib overnight and surface MICA expression was determined with flow cytometry. […] IFN-γ production was measured by ELISPOT against dendritic cells loaded with U226 MM cells. […]

MM-1R MM cells = test: Surface MICA expression by flow cytometry in MM-1R MM cells; assay type: cell-based; conditions: 20 μM Bortezomib overnight
Description: as §5, §6

U226 MM cells [3] = test: Dendritic cell cross-presentation of MGUS sera-coated treated U226 MM cells, IFN-γ ELISPOT of CD8+ T cells; assay type: cell-based; conditions: drug treated U226 MM cells coated with MGUS sera; CD8+ T cells stimulated seven days
Description: Donor peripheral blood mononuclear cells (PBMCs) were incubated in 10% patient sera as described above, and NK cells, isolated by magnetic cell sorting (Miltenyl Biotech), were tested in four-hour lysis assays against ^51Cr-labeled K562 target cells. The spontaneous release in all assays was less than 20% of the maximum. Dendritic cells (generated from adherent PBMCs with GM-CSF and IL-4) were co-cultured with opsonized tumor cells (1:1 ratio) for 20 hours, matured with LPS (Sigma-Aldrich) for 24 hours, and then used to stimulate autologous CD8+ T cells, isolated by magnetic cell sorting, for seven days. Antigen specific IFN-γ production was then determined by ELISPOT. For enzyme-linked immunospot (ELISPOT) analysis, ImmunoSpotplates (Cellular Technology) were coated overnight at 37° C. with 10 μg/ml anti-IFN-γ mAb (Mabtech). […] Spots were developed by using BCIP/NBT as a color development substrate and counted with an ImmunoSpot microplate reader (Cellular Technology, Cleveland).
as §6

Row | Compound | anti-MICA antibody titers (MICA) | sMICA levels (sMICA) | ATM phosphorylation (ser 1981) (U226 MM cells [1]; 10 μM Bortezomib) | phosphorylation of ATM (ser 1981) and chk-2 (thr 68) (U226 MM cells [1]; 20 μM Bortezomib or 250 μg/ml dexamethasone) | phosphorylation of ATM (ser 1981) and chk-2 (thr 68) (RPMI-8226 MM cells) | ATM (total ATM, immunoblot) (MM-1S cells) | surface expression of MICA (U226 MM cells [2]) | surface expression of MICA (MM-1R MM cells) | dendritic cell cross-presentation of treated U226 cells by MGUS sera (IFN-γ ELISPOT) (U226 MM cells [3])
1 | MDX-010: fully human anti-CTLA-4 blocking monoclonal antibody | elevated levels of anti-MICA antibodies | sharp decrease |  |  |  |  |  |  | 
2 | CC(C)C[C@H](NC(=O)[C@H](Cc1ccccc1)NC(=O)c1cnccn1)B(O)O [Bortezomib] |  |  | induced ATM phosphorylation | triggered the rapid phosphorylation | but not RPMI MM cells | stimulated the degradation of ATM | increased the surface expression of MICA | increased the surface expression of MICA | as efficiently as U226-MICA cells
